Consider one molecule from paper PMC5572114, “Guanidine N-methylation by BlsL Is Dependent on Acylation of Beta-amine Arginine in the Biosynthesis of Blasticidin S” (Frontiers in Microbiology, 2017).

This experiment has as its target T1, BlsL (Streptomyces griseochromogenes, UniProt Q841K2).
T1 construct: gene J2Z21_009042; full length, His-tagged, pET28a NdeI/EcoRI, E. coli BL21(DE3); gene from cluster plasmid pJTU1780; primers encode N-terminus MEQSTGA, C-terminus CFYKD
Nature of the experiment: SAM released from boiled purified BlsL; HPLC and MS/MS. The class given is binding. As to conditions: co-purified endogenous ligand; methyl donor.

T1 sequence (Q841K2 1-213): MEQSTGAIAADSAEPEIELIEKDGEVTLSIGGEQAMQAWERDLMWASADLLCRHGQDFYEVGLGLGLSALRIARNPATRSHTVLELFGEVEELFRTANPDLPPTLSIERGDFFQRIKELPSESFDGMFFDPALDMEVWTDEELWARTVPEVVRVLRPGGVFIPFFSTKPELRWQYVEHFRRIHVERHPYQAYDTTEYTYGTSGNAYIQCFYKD

For `C[S+](CC[C@H](N)C(=O)O)C[C@H]1O[C@@H](n2cnc3c(N)ncnc32)[C@H](O)[C@@H]1O` (stereo partly shown) [SAM], the “SAM released from boiled purified BlsL; HPLC and MS/MS” value is “Association of SAM with BlsL was confirmed by HPLC as well as MS/MS fragmentation”.
